{"source": "ChEMBL document CHEMBL1122784", "about": "“Antitumor imidazotetrazines. 1. Synthesis and chemistry of 8-carbamoyl-3-(2-chloroethyl)imidazo[5,1-d]-1,2,3,5-tetrazin-4(3 H)-one , a novel broad-spectrum antitumor agent” (J Med Chem, 1984)", "key": {"Mus musculus [1]": {"system": "Mus musculus", "test": "Compound was tested for mortality in L1210 leukemia implanted BDF1 mice on day 0 after ip administration of 2.5 mg/kg/day on day 1-5 out of 5 mice", "assay_type": "functional", "settings": "route intraperitoneal"}, "Mus musculus [2]": {"system": "Mus musculus", "test": "Compound was tested for mortality in P388 leukemia implanted BDF1 mice on day 0 after ip administration of 20 mg/kg/day on day 1-5 out of 5 mice", "assay_type": "functional", "settings": "route intraperitoneal"}}, "data": [{"smiles": "NC(=O)c1ncn2c(=O)n(CCCl)nnc12", "note": "[MITOZOLOMIDE]", "values": [{"measurement": "Mortality", "setting": "Mus musculus [1]", "value": 0}, {"measurement": "Mortality", "setting": "Mus musculus [2]", "value": 0}]}]}
